Test [1] deals with CD8-MerTK in Ba/F3-CDM cells. Nature of the test: In cell MER kinase assay, Ba/F3-CDM cell proliferation without IL-3 (Celltiter-Glo). To be noted: 48 hours compound treatment, read-out: Cell growth inhibition (GI50). It is filed as cell-based, murine. In short, it runs like this:
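Ba/F3 cells, IL-3-dependent, transfected with CD8-MerTK and grown without IL-3 in DMEM/10% FBS. IL-3-supplemented Ba/F3 cells run in parallel as a cytotoxicity control.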

The target in test [2] is human c-MER catalytic domain (Homo sapiens (Human), UniProt Q12866). In words: LanthaScreen TR-FRET kinase assay, c-MER. To be noted: read-out: Mer TK inhibition (IC50); Biochemical IC50, TR-FRET, 10 uM ATP.
human c-MER catalytic domain, sequence (Q12866 587-858): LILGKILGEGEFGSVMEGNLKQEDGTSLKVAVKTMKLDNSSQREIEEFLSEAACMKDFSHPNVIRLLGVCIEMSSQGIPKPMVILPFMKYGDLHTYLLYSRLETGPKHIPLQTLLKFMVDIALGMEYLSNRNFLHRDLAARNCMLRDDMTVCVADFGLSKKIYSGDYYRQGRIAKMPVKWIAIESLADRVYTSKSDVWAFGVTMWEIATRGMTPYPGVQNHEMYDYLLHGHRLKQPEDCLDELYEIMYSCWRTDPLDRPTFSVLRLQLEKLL

By GI50 is commonly meant the concentration giving 50% growth inhibition. The term IC50 denotes the concentration needed to halve the response being measured. `CN(C)c1ccc(-c2ccc(CO[C@H]3CCC[C@@H]3NC(=O)c3cc(-c4cnn(C)c4)cnc3N)cc2)cc1` [Example 137, 2-amino-N-((1S,2S)-2-((4′-(dimethylamino)-[1,1′-biphenyl]-4-yl)methoxy)cyclopentyl)-5-(1-methyl-1H-pyrazol-4-yl)nicotinamide]: the GI50 in test [1] was less than 0.1 µM. In addition, the concentration for half-maximal inhibition (IC50) in test [2] was less than 0.01 µM.

With `CN1CCN(Cc2c(F)cc(-c3ccc(CO[C@H]4CCC[C@@H]4NC(=O)c4cc(-c5cnn(C)c5)cnc4N)cc3)cc2F)CC1` [Example 196, 2-amino-N-((1S,2S)-2-((3′,5′-difluoro-4′-((4-methylpiperazin-1-yl)methyl)-[1,1′-biphenyl]-4-yl)methoxy)cyclopentyl)-5-(1-methyl-1H-pyrazol-4-yl)nicotinamide], in test [1], the 50% growth inhibitory concentration (GI50) was 0.1 to 0.5 µM. Besides, the IC50 in test [2] is less than 0.01 µM.

In the case of `C[C@@H](c1ccc(-c2ccc(CO[C@H]3CCC[C@@H]3NC(=O)c3cc(-c4ccc(F)nc4)cnc3N)cc2)cc1)N1CCN(CCO)CC1` [Example 226, 6-amino-6′-fluoro-N-((1S,2S)-2-((4′-((S)-1-(4-(2-hydroxyethyl)piperazin-1-yl)ethyl)-[1,1′-biphenyl]-4-yl)methoxy)cyclopentyl)-[3,3′-bipyridine]-5-carboxamide], the 50% growth inhibitory concentration (GI50) in test [1] is less than 0.1 µM. In addition, the half-inhibitory concentration (IC50) in test [2] is less than 0.01 µM.

Consider `CC(c1ccc(-c2ccc(CO[C@H]3CCC[C@@H]3NC(=O)c3cc(-c4cncc(F)c4)cnc3N)cc2)cc1)N1CCN(C)CC1` (stereo partly drawn) [Example 230, 6-amino-5′-fluoro-N-((1S,2S)-2-((4′-(1-(4-methylpiperazin-1-yl)ethyl)-[1,1′-biphenyl]-4-yl)methoxy)cyclopentyl)-[3,3′-bipyridine]-5-carboxamide], for which the GI50 in test [1] is less than 0.1 µM. The IC50 in test [2] was less than 0.01 µM.

Take `CN1CCN(Cc2ccc(-c3ccc(CO[C@H]4CCC[C@@H]4NC(=O)c4cc(-c5ccncc5)cnc4N)cc3)cc2)CC1` [Example 377, 6-amino-N-((1S,2S)-2-((4′-((4-methylpiperazin-1-yl)methyl)-[1,1′-biphenyl]-4-yl)methoxy)cyclopentyl)-[3,4′-bipyridine]-5-carboxamide]: in test [1], the 50% growth inhibitory concentration (GI50) was less than 0.1 µM. In test [2], the half-inhibitory concentration (IC50) was less than 0.01 µM.

On to `Cc1cccc(-c2cnc(N)c(C(=O)N[C@H]3CCC[C@@H]3OCc3ccc(-c4ccc(CN5CCN(C)CC5)cc4)cc3)c2)c1` [Example 370, 2-amino-N-((1S,2S)-2-((4′-((4-methylpiperazin-1-yl)methyl)-[1,1′-biphenyl]-4-yl)methoxy)cyclopentyl)-5-(m-tolyl)nicotinamide], for which the GI50 in test [1] was less than 0.1 µM. Also, the IC50 in test [2] is less than 0.01 µM.

For the compound `CCc1cc(CO[C@H]2CNC[C@@H]2NC(=O)c2cc(-c3ccc(CC#N)cc3)cnc2N)ccc1C` [Example 411, 2-amino-5-(4-(cyanomethyl)phenyl)-N-((3S,4S)-4-((3-ethyl-4-methylbenzyl)oxy)pyrrolidin-3-yl)nicotinamide], the concentration for 50% growth inhibition (GI50) in test [1] lay in the range of 0.1 to 0.5 µM. In addition, the IC50 in test [2] was less than 0.01 µM.

On to `C[C@@H]1CN(Cc2ccc(-c3ccc(CO[C@H]4CCC[C@@H]4NC(=O)c4cc(-c5cnn(C)c5)cnc4N)cc3)cc2)C[C@H](C)N1C` [Example 190, 2-amino-5-(1-methyl-1H-pyrazol-4-yl)-N-((1S,2S)-2-((4′-((cis-3,4,5-trimethylpiperazin-1-yl)methyl)-[1,1′-biphenyl]-4-yl)methoxy)cyclopentyl)-nicotinamide], for which the GI50 in test [1] was less than 0.1 µM. For the same compound, the IC50 in test [2] is less than 0.01 µM.

Regarding `CC(c1c(F)cc(-c2ccc(CO[C@H]3CCC[C@@H]3NC(=O)c3cc(-c4cnn(C)c4)cnc3N)cc2)cc1F)N1CCN(CCO)CC1` (stereo partly drawn) [Example 212, 2-amino-N-((1S,2S)-2-((3′,5′-difluoro-4′-(1-(4-(2-hydroxyethyl)-piperazin-1-yl)ethyl)-[1,1′-biphenyl]-4-yl)methoxy)cyclopentyl)-5-(1-methyl-1H-pyrazol-4-yl)nicotinamide], in test [1], the GI50 was greater than 1 µM. In addition, the IC50 in test [2] is less than 0.01 µM.

For `CCc1cccc(CO[C@H]2CNC[C@@H]2NC(=O)c2cc(-c3cnn(C)c3)cnc2N)c1` [Example 416, 2-amino-N-((3S,4S)-4-((3-ethylbenzyl)oxy)pyrrolidin-3-yl)-5-(1-methyl-1H-pyrazol-4-yl)nicotinamide], the 50% growth inhibitory concentration (GI50) in test [1] was 0.1 to 0.5 µM. The IC50 in test [2] is less than 0.01 µM.

`Cn1cc(-c2cnc(N)c(C(=O)N[C@H]3CCC[C@@H]3OCc3ccc(-c4ccc(CN5CCNCC5)cc4)cc3)c2)cn1` [Example 177, 2-amino-5-(1-methyl-1H-pyrazol-4-yl)-N-((1S,2S)-2-((4′-(piperazin-1-ylmethyl)-[1,1′-biphenyl]-4-yl)methoxy)cyclopentyl)nicotinamide]: in test [1], the concentration for 50% growth inhibition (GI50) was in the range of 0.1 to 0.5 µM. Besides, the IC50 in test [2] is less than 0.01 µM.

As to `Cn1cc(-c2cnc(N)c(C(=O)N[C@H]3CCC[C@@H]3OCc3ccc(-c4ccc(CC5CCN(CCO)CC5)cc4)cc3)c2)cn1` [Example 240, 2-amino-N-((1S,2S)-2-((4′-((1-(2-hydroxyethyl)piperidin-4-yl)-methyl)-[1,1′-biphenyl]-4-yl)methoxy)cyclopentyl)-5-(1-methyl-1H-pyrazol-4-yl)-nicotinamide], the 50% growth inhibitory concentration (GI50) in test [1] is less than 0.1 µM. The half-maximal inhibitory concentration (IC50) in test [2] was less than 0.01 µM.

For `CCc1cc(CO[C@H]2CNC[C@@H]2NC(=O)c2cc(-c3ccc(C(=O)NC4CCN(C)CC4)cc3)cnc2N)ccc1C` [Example 419, 2-amino-N-((3S,4S)-4-((3-ethyl-4-methylbenzyl)oxy)pyrrolidin-3-yl)-5-(4-((1-methylpiperidin-4-yl)carbamoyl)phenyl)nicotinamide], in test [1], the GI50 is greater than 1 µM. Moreover, in test [2], the IC50 is less than 0.01 µM.

`CN1CCN(Cc2ccc(-c3ccc(CO[C@H]4CCC[C@@H]4NC(=O)c4cc(-c5cnn(C)c5)cnc4N)cc3)c(Cl)c2)CC1` [Example 202, 2-amino-N-((1S,2S)-2-((2′-chloro-4′-((4-methylpiperazin-1-yl)-methyl)-[1,1′-biphenyl]-4-yl)methoxy)cyclopentyl)-5-(1-methyl-1H-pyrazol-4-yl)-nicotinamide]: the GI50 in test [1] was in the range of 0.1 to 0.5 µM. In addition, the half-maximal inhibitory concentration (IC50) in test [2] was less than 0.01 µM.

For `CCc1cc(CO[C@H]2CNC[C@@H]2NC(=O)c2cc(-c3ccc(C(N)=O)cc3)cnc2N)ccc1C` [Example 391, 2-amino-5-(4-carbamoylphenyl)-N-((3S,4S)-4-((3-ethyl-4-methylbenzyl)oxy)pyrrolidin-3-yl)nicotinamide], in test [1], the 50% growth inhibitory concentration (GI50) is greater than 1 µM. Further, the IC50 in test [2] is less than 0.01 µM.

Take `CCC1CN(Cc2ccc(-c3ccc(CO[C@H]4CCC[C@@H]4NC(=O)c4cc(-c5cnn(C)c5)cnc4N)cc3)cc2)CCN1C` (stereo partly drawn) [Example 188, 2-amino-N-((1S,2S)-2-((4′-((3-ethyl-4-methylpiperazin-1-yl)-methyl)-[1,1′-biphenyl]-4-yl)methoxy)cyclopentyl)-5-(1-methyl-1H-pyrazol-4-yl)-nicotinamide]: the GI50 in test [1] is less than 0.1 µM. Also, in test [2], the IC50 was less than 0.01 µM.

`Cn1cc(-c2cnc(N)c(C(=O)N[C@H]3CCC[C@@H]3OCc3ccc(-c4ccc(CN5CCN(CCO)CC5)cc4Cl)cc3)c2)cn1` [Example 206, 2-amino-N-((1S,2S)-2-((2′-chloro-4′-((4-(2-hydroxyethyl)-piperazin-1-yl)methyl)-[1,1′-biphenyl]-4-yl)methoxy)cyclopentyl)-5-(1-methyl-1H-pyrazol-4-yl)nicotinamide]: in test [1], the GI50 was in the range of 0.1 to 0.5 µM. The half-inhibitory concentration (IC50) in test [2] is less than 0.01 µM.

As for `CN1CCN(Cc2ccc(-c3ccc(CO[C@H]4CN(C)C[C@@H]4NC(=O)c4cc(-c5cnn(C)c5)cnc4N)cc3)cc2C(F)(F)F)CC1` [Example 437, 2-amino-5-(1-methyl-1H-pyrazol-4-yl)-N-((3S,4S)-1-methyl-4-((4′-((4-methylpiperazin-1-yl)methyl)-3′-(trifluoromethyl)-[1,1′-biphenyl]-4-yl)-methoxy)pyrrolidin-3-yl)nicotinamide], the GI50 in test [1] was less than 0.1 µM. The IC50 in test [2] was less than 0.01 µM.

On to `CN1C[C@H](NC(=O)c2cc(-c3cnn(C)c3)cnc2N)[C@@H](OCc2ccc(-c3ccc(C(C)(C)N4CCN(CCO)CC4)cc3)cc2)C1` [Example 441], for which, in test [1], the GI50 was 0.1 to 0.5 µM. Also, the IC50 in test [2] is less than 0.01 µM.

As for `C[C@H](c1ccc(-c2ccc(CO[C@H]3CCC[C@@H]3NC(=O)c3cc(-c4ccc(F)nc4)cnc3N)cc2)cc1)N1CCN(CCO)CC1` [Example 227, 6-amino-6′-fluoro-N-((1S,2S)-2-((4′-((R)-1-(4-(2-hydroxyethyl)-piperazin-1-yl)ethyl)-[1,1′-biphenyl]-4-yl)methoxy)cyclopentyl)-[3,3′-bipyridine]-5-carboxamide], the 50% growth inhibitory concentration (GI50) in test [1] is less than 0.1 µM. For the same compound, in test [2], the IC50 was less than 0.01 µM.

On to `CN1CCN(Cc2ccc(-c3ccc(CO[C@H]4CCC[C@@H]4NC(=O)c4cc(-c5cnn(C)c5)cnc4N)cc3)cc2F)CC1` [Example 195, 2-amino-N-((1S,2S)-2-((3′-fluoro-4′-((4-methylpiperazin-1-yl)-methyl)-[1,1′-biphenyl]-4-yl)methoxy)cyclopentyl)-5-(1-methyl-1H-pyrazol-4-yl)-nicotinamide], for which the GI50 in test [1] was less than 0.1 µM. The IC50 in test [2] was less than 0.01 µM.

For the compound `Cn1cc(-c2cnc(N)c(C(=O)N[C@H]3CCC[C@@H]3OCc3ccc(-c4ccc(C5(N6CCN(CCO)CC6)CC5)cc4)cc3)c2)cn1` [Example 220, 2-amino-N-((1S,2S)-2-((4′-(1-(4-(2-hydroxyethyl)piperazin-1-yl)cyclopropyl)-[1,1′-biphenyl]-4-yl)methoxy)cyclopentyl)-5-(1-methyl-1H-pyrazol-4-yl)nicotinamide], the concentration for 50% growth inhibition (GI50) in test [1] was less than 0.1 µM. Also, in test [2], the IC50 is less than 0.01 µM.

Turning to `CN1CCN(Cc2ccc(-c3ccc(CO[C@H]4CCC[C@@H]4NC(=O)c4cc(-c5ccc(O)cc5)cnc4N)cc3)cc2)CC1` [Example 372], in test [1], the GI50 was less than 0.1 µM. Also, in test [2], the IC50 was less than 0.01 µM.

The record behind these values is patent US10125118B2, “Heteroaryl compounds and their use as therapeutic drugs” (Dong-A Socio Holdings Co., Ltd., priority 2015, dated 2018).
